Source: patent US7745572B2, “Peptides effective in the treatment of tumors and other conditions requiring the removal or destruction of cells” (Qualcomm Incorporated, priority 2001, dated 2010)

System: rat prostate
Experiment: Intraprostatic infusion in rats, prostate volume and histology at 72 hours
Format: in vivo, Sprague-Dawley rats
Details: 1 mg/mL in PBS pH 7.4 (1.0 mg/kg)
Experimental: Male Sprague-Dawley rats (300 gram weight range) were anesthetized with ether and given NTP[122] peptide #1 by intraprostatic infusion after open surgical visualization of the prostate. The injections consisted of 300 μl of NTP[122] peptide #1, 1 mg/mL in PBS pH 7.4. (1.0 mg/kg) (n=8), control injections of PBS alone (n=6), and controls with no injection (n=2). Rats were painlessly sacrificed after 72 hours. Prostate glands were dissected, fixed in 10%, buffered formalin for 24 hours, embedded in paraffin, sectioned, and stained with H & E. For each animal the entire prostate gland was embedded and sectioned. All stained sections were examined histologically and measured. For each prostate at least 4 histological sections were examined, and for each histological section two cross-sectional diameters (D) at 90° from each other were measured (total of ≧8 measurements per prostate). […]
Male Sprague-Dawley rats (300 gram weight range) were anesthetized with ether and given NTP[112] peptide #1 by intraprostatic infusion after open surgical visualization of the prostate. […] All stained sections were examined histologically and measured. For each prostate at least 4 histological sections were examined, and for each histological section two cross-sectional diameters (D) at 90° from each other were measured (total of ≧8 measurements per prostate). […]

## IDQQVLSRIKLEIKRCL (listed as Homo sapiens) [NTP[122] peptide #1]
  prostate histology (H & E): extensive loss of glandular epithelium, flattening and atrophy

## MAQSRLTATSASRVQ (listed as Homo sapiens) [NTP[112] peptide #1]
  prostate histology (H & E): significant cell loss and atrophy
